From patent US20040029906A1, “Inhibitors of dna polymerase sigma” (priority 2003, published 2004)
pIC50: −log10 of the molar value. Entries after “also recorded” stand apart in the source; their conditions may differ. Where two headings read alike, the source gives them in different places.

Experiments:
rat polymerase β = rat polymerase β (Rattus norvegicus, UniProt P06766); format: biochemical
Description: To a 50 μL of 62.5 mM 2-amino-2-methyl-1,3-propanediol buffer, pH 8.6, containing 10 mM MgCl2, 1 mM DTT, 100 μg/mL BSA, 6.25 μM dNTPs including 0.04 Ci/mmol [^3H]dTTP, and 0.25 mg/mL activated calf thymus DNA was added 6 μL of a solution containing each test compound and 4 μL of recombinant rat liver DNA polymerase β preparation (6.9 units, 4.8×10^4 units/mg). After incubation at 37° C. for 60 min, the radiolabeled DNA product was collected on DEAE-cellulose paper (DE-81), dried, and rinsed successively with 0.4 M K2HPO4, pH 9.4, and 95% ethanol for radioactivity determination.

[1] = biological target: T1, yeast polymerase σ (Trf4, pol sigma-I) (Saccharomyces cerevisiae, UniProt P53632); assay: in vitro primer extension assay (5'-32P dT16 primer / poly dA template) for polymerase σ inhibition; format: biochemical, yeast (S. cerevisiae); conditions: for inhibition of polymerase σ in primer extension assay (FIG. 3), in words: 10 μM test compound, 5 min, dTTP, Mg2+; for concentration level of yeast pol sigma inhibition, in words: yeast pol sigma in vitro
T1 construct: His6 (peptide tag containing six histidines); made in house; host or cells: E. coli
T1 sequence (P53632 1-584): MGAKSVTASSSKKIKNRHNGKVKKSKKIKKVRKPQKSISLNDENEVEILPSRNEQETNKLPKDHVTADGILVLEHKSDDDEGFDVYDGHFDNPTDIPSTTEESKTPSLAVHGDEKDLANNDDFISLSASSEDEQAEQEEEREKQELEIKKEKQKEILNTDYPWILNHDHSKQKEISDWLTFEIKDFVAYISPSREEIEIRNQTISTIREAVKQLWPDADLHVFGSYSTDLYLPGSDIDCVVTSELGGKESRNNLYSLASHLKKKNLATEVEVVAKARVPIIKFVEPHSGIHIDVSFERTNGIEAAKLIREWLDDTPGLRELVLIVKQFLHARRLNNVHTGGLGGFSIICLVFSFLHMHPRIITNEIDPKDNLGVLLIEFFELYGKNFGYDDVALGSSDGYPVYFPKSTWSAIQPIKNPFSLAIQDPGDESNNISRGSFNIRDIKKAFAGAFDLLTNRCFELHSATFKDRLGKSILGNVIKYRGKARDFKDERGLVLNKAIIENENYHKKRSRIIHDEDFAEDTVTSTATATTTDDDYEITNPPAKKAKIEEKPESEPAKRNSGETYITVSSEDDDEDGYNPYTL
Description: Due to the predicted structural similarity between pol sigma and pol β (Aravind and Koonin, 1999, Nucleic Acids Research 27: 1609-1618) several known β polmerase inhibitors were tested to determine if they would inhibit pol sigma in vitro. […] The template primer was incubated in the presence of dTTP, Mg^2+ and 10 μM test compound for 5 min. […] Lane 1 of FIG. 3 is a control with only the DMSO solvent added to the poly dA/ oligo dT assay, the remaining lanes represent reactions run in the presence of one of the β polmerase inhibitors.
The assay system that has been employed to date employs a dT16 primer annealed to a poly dA template (average length 282 nucleotides). Primer elongation as a consequence of the addition of T residues (in a distributive fashion) has been monitored by polyacrylamide gel electrophoresis. For purposes of screening for inhibitors a variant of the DNA polymerase β this system will be used as follows: […]

[2] = biological target: human pol sigma (pol sigma-1) (Homo sapiens, UniProt Q5XG87); assay: inhibition of human pol sigma; format: biochemical
Chain of human pol sigma (pol sigma-1) (Q5XG87 whole entry): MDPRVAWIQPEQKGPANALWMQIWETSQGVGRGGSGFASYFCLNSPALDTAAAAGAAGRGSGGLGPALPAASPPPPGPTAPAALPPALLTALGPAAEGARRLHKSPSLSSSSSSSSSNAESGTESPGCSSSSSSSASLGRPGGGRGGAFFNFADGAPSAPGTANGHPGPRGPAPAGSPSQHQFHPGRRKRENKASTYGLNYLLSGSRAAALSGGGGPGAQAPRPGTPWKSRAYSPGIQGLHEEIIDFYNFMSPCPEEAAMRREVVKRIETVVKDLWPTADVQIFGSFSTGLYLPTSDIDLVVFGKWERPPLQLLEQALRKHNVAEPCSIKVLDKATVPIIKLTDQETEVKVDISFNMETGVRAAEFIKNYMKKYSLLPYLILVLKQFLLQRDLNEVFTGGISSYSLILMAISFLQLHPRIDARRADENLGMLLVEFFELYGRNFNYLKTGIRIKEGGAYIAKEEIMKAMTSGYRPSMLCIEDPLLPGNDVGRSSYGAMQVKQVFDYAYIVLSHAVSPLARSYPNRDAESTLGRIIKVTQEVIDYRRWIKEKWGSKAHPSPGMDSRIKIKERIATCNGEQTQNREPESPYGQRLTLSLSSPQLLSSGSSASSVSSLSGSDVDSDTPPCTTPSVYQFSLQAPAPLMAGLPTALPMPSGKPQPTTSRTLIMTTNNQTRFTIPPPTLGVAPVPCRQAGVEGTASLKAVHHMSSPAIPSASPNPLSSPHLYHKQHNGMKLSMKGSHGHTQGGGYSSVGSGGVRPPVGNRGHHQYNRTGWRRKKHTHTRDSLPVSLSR

P388D1 cells = assay: P388D1 cell viability, camptothecin and ursolic acid alone or together (Trypan Blue, hemacytometer); conditions: 6 hr incubation, 1 μM camptothecin, 0.5 μM ursolic acid
Source text: (§1) Viable cells were scored by the use of a hemacytometer plate after straining with Trypan Blue.

[3] = as above; conditions: mouse, % viability, 6 hr incubation, 1 μM camptothecin, 0.5 μM ursolic acid
Source text: as §1

[4] = system: TRF4-deficient yeast (trf4 single mutants); assay: yeast spot growth assay, sensitivity to camptothecin; format: cell-based, S. cerevisiae (yeast)
Description: Spots represent serial 10-fold dilutions of saturated yeast cultures spotted onto Petri plates and incubated at 30° C. for 2 days in the presence of 10 ug/ml of camptothcin (FIG. 1A) or absence of drug (FIG. 1B).

C/C(=C\CC[C@@H](C)[C@@H]1CC[C@]2(C)C3=CC[C@H]4C(C)(C)[C@@H](O)CC[C@]4(C)[C@H]3CC[C@@]12C)C(=O)O [(24E)-3beta-hydroxy-7,24-euphandien-26-oic acid]
rank order of potencies for rat polymerase β (rat polymerase β; rat polymerase β): ursolic acid >betulinic acid >> 3β-hydroxy-7,24-euphandien-26-oic acid | pIC50 [1]: ~6.30 | pol sigma polymerase activity observed in presence of compound ([1]; 10 uM concentration): no activity whatsoever | inhibition of polymerase σ in primer extension assay (FIG. 3), in words [1]: most potent of the species tested | concentration level of yeast pol sigma inhibition, in words [1]: nanomolar level inhibitor | inhibitory activity against human pol sigma, in words [2]: inhibitory activity; also recorded: active, albeit only at micromolar concentrations; also recorded: also work to inhibit human pol sigma-1

C=C(C)[C@@H]1CC[C@]2(C(=O)O)CC[C@]3(C)[C@H](CC[C@@H]4[C@@]5(C)CC[C@H](O)C(C)(C)[C@@H]5CC[C@]43C)[C@@H]12 [betulinic acid]
rank order of potencies for rat polymerase β (rat polymerase β): ursolic acid >betulinic acid >> 3β-hydroxy-7,24-euphandien-26-oic acid | inhibition of polymerase σ in primer extension assay (FIG. 3), in words [1]: showing activity | concentration level of yeast pol sigma inhibition, in words [1]: micromolar concentrations

CC[C@@]1(O)C(=O)OCc2c1cc1n(c2=O)Cc2cc3ccccc3nc2-1 [camptothecin]
toxicity to P388D1 cells, in words (P388D1 cells): minimal toxicity | viability at 6 h ([3]; P388D1 cells (suspension culture), Experiment 1, P388D1 cells): 84% | viability at 6 h ([3]; P388D1 cells (suspension culture), Experiment 2, P388D1 cells): 77% | sensitivity of pol sigma-deficient yeast relative to wild-type strains, in words ([4]; 10 ug/ml, 30° C., 2 days, trf4::HIS3 and mcd1-1): hypersensitive | sensitivity of yeast cells lacking TRF4 to the agent relative to wild type ([4]; yeast cells lacking TRF4 (FIG. 1)): 10,000 fold

C[C@H]1[C@H](C)CC[C@]2(C(=O)O)CC[C@]3(C)C(=CC[C@@H]4[C@@]5(C)CC[C@H](O)C(C)(C)[C@@H]5CC[C@]43C)[C@H]12 [ursolic acid]
toxicity to P388D1 cells, in words (P388D1 cells): minimal toxicity | viability at 6 h ([3]; Experiment 1, P388D1 cells): 88% | viability at 6 h ([3]; Experiment 2, P388D1 cells): 77% | rank order of potencies for rat polymerase β (rat polymerase β): ursolic acid >betulinic acid >> 3β-hydroxy-7,24-euphandien-26-oic acid | inhibition of polymerase σ in primer extension assay (FIG. 3), in words [1]: showing activity | concentration level of yeast pol sigma inhibition, in words [1]: micromolar concentrations | concentration level of yeast pol sigma inhibition, in words ([1]; listed as Ursolic acid): inhibits yeast polymerase σ | inhibitory activity against human pol sigma, in words [2]: inhibitory activity
